Data taken from article PMC8226452, “PESIN Conjugates for Multimodal Imaging: Can Multimerization Compensate Charge Influences on Cell Binding Properties? A Case Study” (Pharmaceuticals, 2021).
Like-named read-outs stand apart in the source and are kept apart here. Each block holds one compound with its values, some of them ahead of it.

Legend:
[1] = target: T1, gastrin-releasing peptide receptor (GRPR) (Homo sapiens, UniProt P30550); assay: Competitive displacement assay with [125I]I-Tyr4-bombesin on stably GRPR-transfected HEK-293 cells; conditions: 10^5 GRPR-transfected HEK-293 cells per well; radioligand [125I]I-Tyr4-bombesin; 11 competitor concentrations (0.25-500 nM for 5 and 6, 0.1-250 nM for BBN); 1 h at ambient temperature; γ-counting; nonlinear regression; at least three experiments, each in triplicate; read-out: IC50 (GRPR binding affinity)
T1 construct: host or cells: HEK-293 (human embryonic kidney) cells, stably GRPR-transfected
T1 sequence (P30550 whole entry, species assumed): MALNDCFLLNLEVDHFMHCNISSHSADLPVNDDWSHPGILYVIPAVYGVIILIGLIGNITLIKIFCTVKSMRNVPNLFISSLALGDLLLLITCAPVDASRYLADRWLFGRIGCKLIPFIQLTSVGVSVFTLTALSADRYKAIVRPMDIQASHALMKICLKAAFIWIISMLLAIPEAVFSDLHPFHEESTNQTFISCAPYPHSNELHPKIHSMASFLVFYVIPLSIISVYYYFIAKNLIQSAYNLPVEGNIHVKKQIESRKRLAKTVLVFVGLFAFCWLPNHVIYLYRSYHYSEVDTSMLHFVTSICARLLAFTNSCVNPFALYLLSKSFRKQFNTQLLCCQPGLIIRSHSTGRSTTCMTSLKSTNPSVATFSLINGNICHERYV
Experimental: Human embryonic kidney 293 cells, stably expressing the GRP receptor (GRPR HEK-293 cells), were obtained from Dr. Martin Béhé, Paul Scherrer Institute, Villingen, Switzerland. Cells were cultured using Dulbecco’s modified Eagle’s medium (DMEM, high glucose, GlutaMax-I, 500 mL), geneticin (G418 Sulfate, 50 mg/mL), Opti-MEM I (GlutaMAX I), RPMI 1640 medium and PenStrep from Gibco, fetal calf serum (FCS) from Bio&sell (Feucht, Germany) and Dulbecco’s phosphate buffered saline (PBS), 0.25% Trypsin and 0.02% EDTA solution in PBS from Sigma-Aldrich (Darmstadt, Germany).
Competitive Receptor Binding Assay. The assays were carried out on stably GRPR-transfected HEK-293 cells as described previously [26, 27]. In brief, 50 µL of a cell suspension containing 10^5 cells was seeded in each well of a Millipore 96-well filter plate. […] After one hour of incubation at ambient temperature, the suspension was filtered and the cells washed thrice with cold PBS. The filter was punched out and measured by γ-counting. […] IC50 values were obtained from at least three different experiments, each performed in triplicate.

[2] = logD by partition between n-octanol and aqueous solution at pH 7.4; format: physicochemical
Experimental: For the ^68Ga-labeled agents [^68Ga]Ga-2, [^68Ga]Ga-3, [^68Ga]Ga-5, and [^68Ga]Ga-6, and the dyes NIR-820 and 1, the logD values were determined by partition experiments between n-octanol and aqueous solution at pH 7.4.
Determination of logD. The n-octanol/water partition coefficient (logD) of [^68Ga]Ga-2, [^68Ga]Ga-3, [^68Ga]Ga-5, and [^68Ga]Ga-6 was determined as previously described. In brief, 5 µL of the respective radiolabeled product solutions were added to a mixture of n-octanol (800 µL) and phosphate buffered solution (0.05 M, pH 7.4, 795 µL) and vigorously shaken for 5 min. After separation of the phases by centrifugation, 100 µL of each phase was taken and measured in a γ-counter.

[3] = not given; remark: listed apart in the source
[4] = shake-flask, n-octanol (800 µL)/phosphate buffered solution (0.05 M, pH 7.4, 795 µL), 5 µL of 68Ga-labeled product solution, shaken 5 min, centrifugation, 100 µL of each phase measured in γ-counter, read-out: logD (n-octanol/water partition coefficient)

SMILES: CSCC[C@H](NC(=O)[C@H](CC(C)C)NC(=O)[C@H](Cc1c[nH]cn1)NC(=O)CNC(=O)[C@@H](NC(=O)[C@H](C)NC(=O)[C@H](Cc1c[nH]c2ccccc12)NC(=O)[C@H](CCC(N)=O)NC(=O)CCOCCOCCOCCOCCNC(=O)CO/N=C/c1ccc(C(=O)NCCCN(CCCNC(=O)c2ccc(/C=N/OCC(=O)NCCOCCOCCOCCOCCC(=O)N[C@@H](CCC(N)=O)C(=O)N[C@@H](Cc3c[nH]c4ccccc34)C(=O)N[C@@H](C)C(=O)N[C@H](C(=O)NCC(=O)N[C@@H](Cc3c[nH]cn3)C(=O)N[C@@H](CC(C)C)C(=O)N[C@@H](CCSC)C(N)=O)C(C)C)cc2)CC(=O)N[C@@H](CSC2CC(=O)N(CCN3C(=O)CC(SC[C@H](NC(=O)[C@H](CCCCNC(=O)c4ccc5c(c4)C(C)(C)C(/C=C/C4=C(c6ccccc6)C(=C/C=C6/N(CCCCS(=O)(=O)O)c7ccc(C(=O)O)cc7C6(C)C)/CCC4)=[N+]5CCCCS(=O)(=O)[O-])NC(=O)CC[C@H](C(=O)O)N4CCN(CC(=O)O)CCN(CC(=O)O)CC4)C(N)=O)C3=O)C2=O)C(=O)NCCOCCOCC(=O)O)cc1)C(C)C)C(N)=O (stereo partly shown) [Compound 5]
IC50 [1]: 59.1 ± 1.49 nM
logD (n-octanol/water partition coefficient) ([2]; shake-flask, n-octanol (800 µL)/phosphate buffered solution (0.05 M, pH 7.4, 795 µL), 5 µL of 68Ga-labeled product solution, shaken 5 min, centrifugation, 100 µL of each phase measured in γ-counter): −2.2 ± 0.1

SMILES: CC1(C)C(/C=C/C2=C(c3ccccc3)C(=C/C=C3/N(CCCCS(=O)(=O)O)c4ccc(C(=O)NCCCC[C@H](NC(=O)CC[C@H](C(=O)O)N5CCN(CC(=O)O)CCN(CC(=O)O)CC5)C(=O)N[C@@H](CS)C(N)=O)cc4C3(C)C)/CCC2)=[N+](CCCCS(=O)(=O)[O-])c2ccc(C(=O)NCCCC[C@H](NC(=O)CC[C@H](C(=O)O)N3CCN(CC(=O)O)CCN(CC(=O)O)CC3)C(=O)N[C@@H](CS)C(N)=O)cc21 [[^68Ga]Ga-3, metal not drawn]
logD ([2]; pH 7.4): -2.9 ± 0.1

logD (n-octanol/water partition coefficient) ([2]; unlabeled dyes, comparable n-octanol/water partition experiments at pH 7.4, HPLC analysis of the phases instead of γ-counting): −3.3 ± 0.7
SMILES: CC1(C)C(/C=C/C2=C(Cl)C(=C/C=C3\N(CCCCS(=O)(=O)[O-])c4ccc(C(=O)O)cc4C3(C)C)/CCC2)=[N+](CCCCS(=O)(=O)[O-])c2ccc(C(=O)O)cc21.[H+] [NIR-820, reference compound]

SMILES: CSCC[C@H](NC(=O)[C@H](CC(C)C)NC(=O)[C@H](Cc1c[nH]cn1)NC(=O)CNC(=O)[C@@H](NC(=O)[C@H](C)NC(=O)[C@H](Cc1c[nH]c2ccccc12)NC(=O)[C@H](CCC(N)=O)NC(=O)CCOCCOCCOCCOCCNC(=O)CO/N=C/c1ccc(C(=O)NCCCN(CCCNC(=O)c2ccc(/C=N/OCC(=O)NCCOCCOCCOCCOCCC(=O)N[C@@H](CCC(N)=O)C(=O)N[C@@H](Cc3c[nH]c4ccccc34)C(=O)N[C@@H](C)C(=O)N[C@H](C(=O)NCC(=O)N[C@@H](Cc3c[nH]cn3)C(=O)N[C@@H](CC(C)C)C(=O)N[C@@H](CCSC)C(N)=O)C(C)C)cc2)CC(=O)N[C@@H](CSC2CC(=O)N(CCN3C(=O)CC(SC[C@H](NC(=O)[C@H](CCCCNC(=O)c4ccc5c(c4)C(C)(C)C(/C=C/C4=C(c6ccccc6)C(=C/C=C6/N(CCCCS(=O)(=O)O)c7ccc(C(=O)O)cc7C6(C)C)/CCC4)=[N+]5CCCCS(=O)(=O)[O-])NC(=O)CC[C@H](C(=O)O)N4CCN(CC(=O)O)CCN(CC(=O)O)CC4)C(N)=O)C3=O)C2=O)C(=O)NCCOCCOCC(=O)O)cc1)C(C)C)C(N)=O (stereo partly shown) [[^68Ga]Ga-5, metal not drawn]
logD [2, 4]: -2.2 ± 0.1

SMILES: CSCC[C@H](NC(=O)[C@H](CC(C)C)NC(=O)[C@H](Cc1c[nH]cn1)NC(=O)CNC(=O)[C@@H](NC(=O)[C@H](C)NC(=O)[C@H](Cc1c[nH]c2ccccc12)NC(=O)[C@H](CCC(N)=O)NC(=O)CCOCCOCCOCCOCCNC(=O)CO/N=C/c1ccc(C(=O)NCCCN(CCCNC(=O)c2ccc(/C=N/OCC(=O)NCCOCCOCCOCCOCCC(=O)N[C@@H](CCC(N)=O)C(=O)N[C@@H](Cc3c[nH]c4ccccc34)C(=O)N[C@@H](C)C(=O)N[C@H](C(=O)NCC(=O)N[C@@H](Cc3c[nH]cn3)C(=O)N[C@@H](CC(C)C)C(=O)N[C@@H](CCSC)C(N)=O)C(C)C)cc2)CC(=O)N[C@@H](CSC2CC(=O)N(CCN3C(=O)CC(SC[C@H](NC(=O)[C@H](CCCCNC(=O)c4ccc5c(c4)C(C)(C)C(/C=C/C4=C(c6ccccc6)C(=C/C=C6/N(CCCCS(=O)(=O)O)c7ccc(C(=O)NCCCC[C@H](NC(=O)CC[C@H](C(=O)O)N8CCN(CC(=O)O)CCN(CC(=O)O)CC8)C(=O)N[C@@H](CSC8CC(=O)N(CCN9C(=O)CC(SC[C@H](NC(=O)CN(CCCNC(=O)c%10ccc(/C=N/OCC(=O)NCCOCCOCCOCCOCCC(=O)N[C@@H](CCC(N)=O)C(=O)N[C@@H](Cc%11c[nH]c%12ccccc%11%12)C(=O)N[C@@H](C)C(=O)N[C@H](C(=O)NCC(=O)N[C@@H](Cc%11c[nH]cn%11)C(=O)N[C@@H](CC(C)C)C(=O)N[C@@H](CCSC)C(N)=O)C(C)C)cc%10)CCCNC(=O)c%10ccc(/C=N/OCC(=O)NCCOCCOCCOCCOCCC(=O)N[C@@H](CCC(N)=O)C(=O)N[C@@H](Cc%11c[nH]c%12ccccc%11%12)C(=O)N[C@@H](C)C(=O)N[C@H](C(=O)NCC(=O)N[C@@H](Cc%11c[nH]cn%11)C(=O)N[C@@H](CC(C)C)C(=O)N[C@@H](CCSC)C(N)=O)C(C)C)cc%10)C(=O)NCCOCCOCC(=O)O)C9=O)C8=O)C(N)=O)cc7C6(C)C)/CCC4)=[N+]5CCCCS(=O)(=O)[O-])NC(=O)CC[C@H](C(=O)O)N4CCN(CC(=O)O)CCN(CC(=O)O)CC4)C(N)=O)C3=O)C2=O)C(=O)NCCOCCOCC(=O)O)cc1)C(C)C)C(N)=O (stereo partly shown) [[^68Ga]Ga-6, metal not drawn]
logD [2, 4]: -1.8 ± 0.1
Stokes Shift: 20 nm

SMILES: CSCC[C@H](NC(=O)[C@H](CC(C)C)NC(=O)[C@H](Cc1c[nH]cn1)NC(=O)CNC(=O)[C@@H](NC(=O)[C@H](C)NC(=O)[C@H](Cc1c[nH]c2ccccc12)NC(=O)[C@H](CCC(N)=O)NC(=O)CCOCCOCCOCCOCCNC(=O)CO/N=C/c1ccc(C(=O)NCCCN(CCCNC(=O)c2ccc(/C=N/OCC(=O)NCCOCCOCCOCCOCCC(=O)N[C@@H](CCC(N)=O)C(=O)N[C@@H](Cc3c[nH]c4ccccc34)C(=O)N[C@@H](C)C(=O)N[C@H](C(=O)NCC(=O)N[C@@H](Cc3c[nH]cn3)C(=O)N[C@@H](CC(C)C)C(=O)N[C@@H](CCSC)C(N)=O)C(C)C)cc2)CC(=O)N[C@@H](CSC2CC(=O)N(CCN3C(=O)CC(SC[C@H](NC(=O)[C@H](CCCCNC(=O)c4ccc5c(c4)C(C)(C)C(/C=C/C4=C(c6ccccc6)C(=C/C=C6/N(CCCCS(=O)(=O)O)c7ccc(C(=O)O)cc7C6(C)C)/CCC4)=[N+]5CCCCS(=O)(=O)[O-])NC(=O)CC[C@H](C(=O)O)N4CCN(CC(=O)O)CCN(CC(=O)O)CC4)C(N)=O)C3=O)C2=O)C(=O)NCCOCCOCC(=O)O)cc1)C(C)C)C(N)=O (stereo partly shown)
Stokes Shift: 20 nm
λmax(em) [3]: 790 nm

SMILES: CC1(C)C(/C=C/C2=C(c3ccccc3)C(=C/C=C3/N(CCCCS(=O)(=O)O)c4ccc(C(=O)NCCCC[C@H](NC(=O)CC[C@H](C(=O)O)N5CCN(CC(=O)O)CCN(CC(=O)O)CC5)C(=O)N[C@@H](CS)C(N)=O)cc4C3(C)C)/CCC2)=[N+](CCCCS(=O)(=O)[O-])c2ccc(C(=O)O)cc21 [[^68Ga]Ga-2, metal not drawn]
logD (n-octanol/water partition coefficient) ([2]; pH 7.4): −2.6 ± 0.1
